In patent publication US20070037817A1, “Acetylenic piperazines as metabotropic glutamate receptor antagonists” (AstraZeneca AB, priority 2005, published 2007):

Biological target: T1, human mGluR5d (Homo sapiens, UniProt P41594)
T1 construct: expressed in transfected cells; host or cells: GHEK (HEK cells expressing a glutamate transporter) for the IP3 assay
Assay: Functional assessment of mGluR5 antagonism in cell lines expressing mGluR5d (FLIPR [Ca2+]i mobilization assay / IP3 turnover assay; assay behind the values not specified)
Assay type: cell-based
Settings: assays described herein (FLIPR or IP3), cells expressing human mGluR5d
Description: The pharmacological properties of the compounds of the invention can be analyzed using standard assays for functional activity. Examples of glutamate receptor assays are well known in the art as described in for example Aramori et al., Neuron 8:757 (1992), Tanabe et al., Neuron 8:169 (1992), Miller et al., J. Neuroscience 15: 6103 (1995), Balazs, et al., J Neurochemistry 69:151 (1997). The methodology described in these publications is incorporated herein by reference. Conveniently, the compounds of the invention can be studied by means of an assay that measures the mobilization of intracellular calcium, [Ca^2+]i in cells expressing mGluR5.
Intracellular calcium mobilization was measured by detecting changes in fluorescence of cells loaded with the fluorescent indicator fluo-3. Fluorescent signals were measured using the FLIPR system (Molecular Devices). A two addition experiment was used that could detect compounds that either activate or antagonize the receptor.
For FLIPR analysis, cells expressing human mGluR5d were seeded on collagen coated clear bottom 96-well plates with black sides and analysis of [Ca^2+]i mobilization was done 24 hours after seeding.
FLIPR experiments were done using a laser setting of 0.800 W and a 0.4 second CCD camera shutter speed. Each FLIPR experiment was initiated with 160 μL of buffer present in each well of the cell plate. After each addition of the compound, the fluorescence signal was sampled 50 times at 1 second intervals followed by 3 samples at 5 second intervals. Responses were measured as the peak height of the response within the sample period.
EC50 and IC50 determinations were made from data obtained from 8-point concentration response curves (CRC) performed in duplicate. Agonist CRC were generated by scaling all responses to the maximal response observed for the plate. Antagonist block of the agonist challenge was normalized to the average response of the agonist challenge in 14 control wells on the same plate.
We have validated a secondary functional assay for mGluR5d based on Inositol Phosphate (IP3) turnover. IP3 accumulation is measured as an index of receptor mediated phospholipase C turnover. GHEK cells stably expressing the human mGluR5d receptors were incubated with [3H] myo-inositol overnight, washed three times in HEPES buffered saline and pre-incubated for 10 min. with 10 mM LiCl. Compounds (agonists) were added and incubated for 30 min. at 37° C. Antagonist activity was determined by pre-incubating test compounds for 15 min., then incubating in the presence of glutamate (80 μM) or DHPG (30 μM) for 30 min. Reactions were terminated by the addition of perchloric acid (5%). Samples were collected and neutralized, and inositol phosphates were separated using Gravity-Fed Ion-Exchange Columns.
Functional assessment of mGluR5 Antagonism in Cell Lines Expressing mGluR5D
The properties of the compounds of the invention can be analyzed using standard assays for pharmacological activity. Examples of glutamate receptor assays are well known in the art as described in for example Aramori et al., Neuron 8:757 (1992), Tanabe et al., Neuron 8:169 (1992), Miller et al., J. Neuroscience 15: 6103 (1995), Balazs, et al., J. Neurochemistry 69:151 (1997). The methodology described in these publications is incorporated herein by reference. Conveniently, the compounds of the invention can be studied by means of an assay (FLIPR) that measures the mobilization of intracellular calcium, [Ca^2+]i in cells expressing mGluR5 or another assay (IP3) that measures inositol phosphate turnover.
Cells expressing human mGluR5d as described in WO97/05252 are seeded at a density of 100,000 cells per well on collagen coated clear bottom 96-well plates with black sides and experiments are done 24 h following seeding. All assays are done in a buffer containing 127 mM NaCl, 5 mM KCl, 2 mM MgCl2, 0.7 mM NaH2PO4, 2 mM CaCl2, 0.422 mg/ml NaHCO3, 2.4 mg/ml HEPES, 1.8 mg/ml glucose and 1 mg/ml BSA Fraction IV (pH 7.4). […]

T1 sequence (P41594 21-942 isoform P41594-3 limits assumed): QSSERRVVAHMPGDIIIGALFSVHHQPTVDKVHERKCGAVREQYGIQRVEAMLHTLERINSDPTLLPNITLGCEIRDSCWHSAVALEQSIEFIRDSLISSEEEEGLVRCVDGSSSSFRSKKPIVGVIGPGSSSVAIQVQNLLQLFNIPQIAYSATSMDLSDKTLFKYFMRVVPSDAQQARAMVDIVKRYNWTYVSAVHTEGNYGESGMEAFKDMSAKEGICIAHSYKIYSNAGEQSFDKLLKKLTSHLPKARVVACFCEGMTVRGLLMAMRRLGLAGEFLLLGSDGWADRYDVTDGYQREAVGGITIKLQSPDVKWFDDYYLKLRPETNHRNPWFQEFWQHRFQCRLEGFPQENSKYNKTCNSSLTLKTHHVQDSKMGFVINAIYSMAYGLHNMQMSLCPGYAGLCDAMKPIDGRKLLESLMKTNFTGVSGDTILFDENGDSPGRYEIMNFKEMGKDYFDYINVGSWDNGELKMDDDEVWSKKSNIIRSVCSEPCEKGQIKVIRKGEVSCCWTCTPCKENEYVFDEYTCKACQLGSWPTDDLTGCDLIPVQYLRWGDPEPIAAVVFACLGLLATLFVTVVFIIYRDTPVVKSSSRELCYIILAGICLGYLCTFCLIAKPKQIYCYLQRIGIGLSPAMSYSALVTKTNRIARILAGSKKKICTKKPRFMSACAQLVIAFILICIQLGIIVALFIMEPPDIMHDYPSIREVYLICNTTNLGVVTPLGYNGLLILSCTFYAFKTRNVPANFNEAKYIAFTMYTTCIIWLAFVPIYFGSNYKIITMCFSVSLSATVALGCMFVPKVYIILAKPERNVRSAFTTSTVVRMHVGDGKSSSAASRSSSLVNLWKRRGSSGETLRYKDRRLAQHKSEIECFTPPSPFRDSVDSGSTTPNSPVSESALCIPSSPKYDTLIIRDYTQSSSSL

Row | IC50 | SMILES
1 | 23 nM | COC(=O)c1cccnc1N1CCN2[C@@H](CC[C@@H]2C#Cc2cccc(Cl)c2)C1 (racemic) [Example 13.12, (±)-methyl 2-[(6R,8aS)-6-[(3-chloro-phenyl)ethynyl]hexahydropyrrolo[1,2-a]pyrazin-2(1H)-yl]nicotinate]
2 | 439 nM | N#Cc1nccnc1N1CCN2[C@@H](CC[C@@H]2C#Cc2nccs2)C1 (racemic) [Example 14.26, (±)-3-[(6R,8aS)-6-(1,3-thiazol-2-yl-ethynyl)hexahydropyrrolo[1,2-a]pyrazin-2(1H)-yl]pyrazine-2-carbonitrile]
3 | 20 nM | N#Cc1cccc(C#C[C@H]2CCC[C@H]3CN(c4ncccc4C#N)CCN32)c1 (racemic) [Example 18.3, (±)-2-{(6R,9aS)-6-[(3-cyanophenyl)ethynyl]octahydro-2H-pyrido[1,2-a]pyrazin-2-yl}nicotinonitrile]
4 | 83 nM | N#Cc1cc(F)cnc1N1CCN2[C@@H](CCC[C@@H]2C#Cc2ccccn2)C1 (racemic) [Example 18.7, (±)-5-fluoro-2-[(6R,9aS)-6-(pyridin-2-ylethynyl)octahydro-2H-pyrido [1,2-a]pyrazin-2-yl]nicotinonitrile]
5 | 187 nM | CCOC(=O)N1CCN2[C@@H](CC[C@H]2C#Cc2cccc(Cl)c2)C1 [Example 12.3, ethyl (6S,8aS)-6-[(3-chloro-phenyl)ethynyl]hexahydropyrrolo[1,2-a]pyrazine-2(1H)-carboxylate]
6 | 486 nM | N#Cc1ccc(N2CCN3[C@@H](CC[C@H]3C#Cc3cccc(Cl)c3)C2)nc1 [Example 13.3, 6-[(6S,8aS)-6-[(3-chlorophenyl)ethynyl]hexahydropyrrolo[1,2-a]pyrazin-2(1H)-yl]nicotinonitrile]
